Assay results published in article PMC9329436, “Optimization of the 4-anilinoquin(az)oline scaffold as epidermal growth factor receptor (EGFR) inhibitors for chordoma utilizing a toxicology profiling assay platform” (Scientific Reports, 2022).
Read-outs that look alike come from different tables or passages of the source.

Assays:
Assay type in all cases: biochemical
[1] = biological target: T1, 320 wild-type protein kinases (Homo sapiens, UniProt O15111); settings: IKK-alpha, singlicate
T1 sequence (O15111 1-745): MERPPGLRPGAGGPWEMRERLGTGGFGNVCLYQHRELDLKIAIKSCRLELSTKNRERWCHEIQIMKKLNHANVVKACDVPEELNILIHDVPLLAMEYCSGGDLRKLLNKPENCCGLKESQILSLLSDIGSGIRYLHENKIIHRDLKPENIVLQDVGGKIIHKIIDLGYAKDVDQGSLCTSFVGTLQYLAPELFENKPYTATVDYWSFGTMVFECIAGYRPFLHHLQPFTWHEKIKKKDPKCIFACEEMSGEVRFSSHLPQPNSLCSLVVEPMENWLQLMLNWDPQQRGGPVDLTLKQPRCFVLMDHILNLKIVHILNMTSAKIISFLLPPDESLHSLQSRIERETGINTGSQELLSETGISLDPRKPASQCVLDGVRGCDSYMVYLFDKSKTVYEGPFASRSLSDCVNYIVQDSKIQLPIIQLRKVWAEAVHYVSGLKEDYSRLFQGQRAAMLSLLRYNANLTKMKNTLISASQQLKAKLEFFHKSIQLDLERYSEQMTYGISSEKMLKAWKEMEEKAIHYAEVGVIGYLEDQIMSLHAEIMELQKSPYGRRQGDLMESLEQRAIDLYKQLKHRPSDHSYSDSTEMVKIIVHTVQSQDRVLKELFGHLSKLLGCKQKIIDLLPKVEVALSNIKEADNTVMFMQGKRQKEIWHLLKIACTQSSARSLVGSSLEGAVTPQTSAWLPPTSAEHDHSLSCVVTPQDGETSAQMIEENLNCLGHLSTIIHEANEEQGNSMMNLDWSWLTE
Excerpt: (§1) Table S4. Profiling of two compounds at two concentrations against 320 wild-type protein kinases; singlicate measurement; Residual activities (% of control).

[2] = biological target: 320 wild-type protein kinases (Homo sapiens, UniProt P06493); settings: singlicate
Excerpt: as §1

[3] = biological target: 320 wild-type protein kinases (Homo sapiens, UniProt P14616); settings: INSR-R, singlicate
Excerpt: as §1

[4] = biological target: T2, 320 wild-type protein kinases (Homo sapiens, UniProt Q13470); settings: kinase TNK1, singlicate
T2 sequence (Q13470 1-666): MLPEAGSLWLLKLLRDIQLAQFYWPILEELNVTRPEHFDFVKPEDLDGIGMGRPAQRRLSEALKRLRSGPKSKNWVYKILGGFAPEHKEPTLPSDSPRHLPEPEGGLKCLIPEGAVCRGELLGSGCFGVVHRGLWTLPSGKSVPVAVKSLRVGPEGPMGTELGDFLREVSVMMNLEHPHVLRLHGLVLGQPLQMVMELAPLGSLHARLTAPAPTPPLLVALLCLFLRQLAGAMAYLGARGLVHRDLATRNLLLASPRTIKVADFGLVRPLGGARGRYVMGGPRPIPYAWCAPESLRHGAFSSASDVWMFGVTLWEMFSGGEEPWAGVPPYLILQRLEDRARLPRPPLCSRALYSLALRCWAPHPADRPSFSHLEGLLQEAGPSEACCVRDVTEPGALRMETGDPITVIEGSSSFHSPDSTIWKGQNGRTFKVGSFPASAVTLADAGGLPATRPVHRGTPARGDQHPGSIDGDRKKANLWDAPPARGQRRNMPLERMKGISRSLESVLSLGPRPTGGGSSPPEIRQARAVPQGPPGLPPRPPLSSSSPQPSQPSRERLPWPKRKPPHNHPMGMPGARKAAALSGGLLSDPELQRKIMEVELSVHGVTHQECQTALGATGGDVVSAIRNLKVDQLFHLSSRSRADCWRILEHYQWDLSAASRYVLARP
Excerpt: as §1

[5] = biological target: 320 wild-type protein kinases (Homo sapiens, UniProt Q13557); settings: CAMK2D, singlicate
Excerpt: as §1

[6] = biological target: 320 wild-type protein kinases (Homo sapiens, UniProt Q15418); settings: kinase RPS6KA1, singlicate
Excerpt: as §1

[7] = biological target: 320 wild-type protein kinases (Homo sapiens, UniProt Q16513); settings: singlicate
Excerpt: as §1

[8] = biological target: 320 wild-type protein kinases (Homo sapiens, UniProt Q5VT25); settings: CDC42BPA, singlicate
Excerpt: as §1

[9] = biological target: T3, 320 wild-type protein kinases (Homo sapiens, UniProt Q9NWZ3); settings: IRAK4 (untagged), singlicate
T3 sequence (Q9NWZ3 1-460): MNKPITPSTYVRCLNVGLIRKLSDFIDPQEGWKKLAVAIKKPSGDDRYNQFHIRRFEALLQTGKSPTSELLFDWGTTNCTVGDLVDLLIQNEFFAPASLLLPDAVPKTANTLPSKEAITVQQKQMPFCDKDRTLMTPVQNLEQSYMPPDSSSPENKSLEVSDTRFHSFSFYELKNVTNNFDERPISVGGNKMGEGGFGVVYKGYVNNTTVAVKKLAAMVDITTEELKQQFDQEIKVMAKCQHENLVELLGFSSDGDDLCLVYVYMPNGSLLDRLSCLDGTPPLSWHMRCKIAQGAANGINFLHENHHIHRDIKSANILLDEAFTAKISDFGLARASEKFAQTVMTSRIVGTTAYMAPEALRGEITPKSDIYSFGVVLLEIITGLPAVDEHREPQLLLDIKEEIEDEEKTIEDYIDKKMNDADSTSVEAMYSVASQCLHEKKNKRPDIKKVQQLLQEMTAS
Excerpt: as §1

[10] = biological target: 320 wild-type protein kinases (Homo sapiens, UniProt Q9UQM7); settings: CAMK2A, singlicate
Excerpt: as §1

[11] = system: 320 wild-type protein kinases; settings: singlicate
Excerpt: as §1

Sequence of 320 wild-type protein kinases (Homo sapiens, UniProt Q15418) (Q15418 whole entry): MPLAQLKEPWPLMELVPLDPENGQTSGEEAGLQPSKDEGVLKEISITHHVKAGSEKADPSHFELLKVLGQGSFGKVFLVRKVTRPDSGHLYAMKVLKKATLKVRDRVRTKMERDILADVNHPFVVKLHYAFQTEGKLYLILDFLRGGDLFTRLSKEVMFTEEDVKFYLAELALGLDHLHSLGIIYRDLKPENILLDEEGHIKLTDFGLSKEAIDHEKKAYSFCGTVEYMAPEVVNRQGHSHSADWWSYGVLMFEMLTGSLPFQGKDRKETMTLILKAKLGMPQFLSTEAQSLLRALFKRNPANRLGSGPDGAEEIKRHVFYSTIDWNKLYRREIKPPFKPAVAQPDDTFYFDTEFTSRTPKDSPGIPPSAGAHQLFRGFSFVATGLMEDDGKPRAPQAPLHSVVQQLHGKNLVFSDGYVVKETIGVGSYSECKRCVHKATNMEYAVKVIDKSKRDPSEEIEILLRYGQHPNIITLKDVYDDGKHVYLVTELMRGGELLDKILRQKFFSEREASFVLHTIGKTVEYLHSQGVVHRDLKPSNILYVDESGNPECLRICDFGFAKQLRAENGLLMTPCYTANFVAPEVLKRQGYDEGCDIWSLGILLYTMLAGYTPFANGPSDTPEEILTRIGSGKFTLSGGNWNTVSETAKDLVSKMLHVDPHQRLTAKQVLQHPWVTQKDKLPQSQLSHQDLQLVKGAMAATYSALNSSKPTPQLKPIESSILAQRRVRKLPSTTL
Sequence of 320 wild-type protein kinases (Homo sapiens, UniProt Q13557) (Q13557 whole entry): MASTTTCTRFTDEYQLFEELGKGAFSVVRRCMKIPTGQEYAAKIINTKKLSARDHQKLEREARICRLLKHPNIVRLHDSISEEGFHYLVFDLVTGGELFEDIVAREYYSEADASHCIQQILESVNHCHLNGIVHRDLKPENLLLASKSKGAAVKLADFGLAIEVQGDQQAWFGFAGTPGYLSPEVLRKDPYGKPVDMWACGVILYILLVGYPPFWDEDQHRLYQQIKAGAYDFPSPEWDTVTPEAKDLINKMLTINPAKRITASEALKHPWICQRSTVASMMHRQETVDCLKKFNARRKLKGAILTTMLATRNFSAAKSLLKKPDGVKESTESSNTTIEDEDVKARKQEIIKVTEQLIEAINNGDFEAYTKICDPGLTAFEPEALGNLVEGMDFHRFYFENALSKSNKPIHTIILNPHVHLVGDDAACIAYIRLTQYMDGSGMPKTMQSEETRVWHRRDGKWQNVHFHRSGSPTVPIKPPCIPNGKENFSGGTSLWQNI
Sequence of 320 wild-type protein kinases (Homo sapiens, UniProt P06493) (P06493 whole entry): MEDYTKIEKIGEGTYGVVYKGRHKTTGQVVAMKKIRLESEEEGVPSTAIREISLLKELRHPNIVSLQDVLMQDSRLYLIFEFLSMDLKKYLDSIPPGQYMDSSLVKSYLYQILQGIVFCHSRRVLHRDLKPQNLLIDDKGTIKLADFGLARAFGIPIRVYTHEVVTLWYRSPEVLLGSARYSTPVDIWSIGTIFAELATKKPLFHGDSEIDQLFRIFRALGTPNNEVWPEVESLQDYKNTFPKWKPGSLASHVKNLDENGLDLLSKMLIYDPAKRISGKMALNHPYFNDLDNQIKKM
Sequence of 320 wild-type protein kinases (Homo sapiens, UniProt P14616) (P14616 27-1297): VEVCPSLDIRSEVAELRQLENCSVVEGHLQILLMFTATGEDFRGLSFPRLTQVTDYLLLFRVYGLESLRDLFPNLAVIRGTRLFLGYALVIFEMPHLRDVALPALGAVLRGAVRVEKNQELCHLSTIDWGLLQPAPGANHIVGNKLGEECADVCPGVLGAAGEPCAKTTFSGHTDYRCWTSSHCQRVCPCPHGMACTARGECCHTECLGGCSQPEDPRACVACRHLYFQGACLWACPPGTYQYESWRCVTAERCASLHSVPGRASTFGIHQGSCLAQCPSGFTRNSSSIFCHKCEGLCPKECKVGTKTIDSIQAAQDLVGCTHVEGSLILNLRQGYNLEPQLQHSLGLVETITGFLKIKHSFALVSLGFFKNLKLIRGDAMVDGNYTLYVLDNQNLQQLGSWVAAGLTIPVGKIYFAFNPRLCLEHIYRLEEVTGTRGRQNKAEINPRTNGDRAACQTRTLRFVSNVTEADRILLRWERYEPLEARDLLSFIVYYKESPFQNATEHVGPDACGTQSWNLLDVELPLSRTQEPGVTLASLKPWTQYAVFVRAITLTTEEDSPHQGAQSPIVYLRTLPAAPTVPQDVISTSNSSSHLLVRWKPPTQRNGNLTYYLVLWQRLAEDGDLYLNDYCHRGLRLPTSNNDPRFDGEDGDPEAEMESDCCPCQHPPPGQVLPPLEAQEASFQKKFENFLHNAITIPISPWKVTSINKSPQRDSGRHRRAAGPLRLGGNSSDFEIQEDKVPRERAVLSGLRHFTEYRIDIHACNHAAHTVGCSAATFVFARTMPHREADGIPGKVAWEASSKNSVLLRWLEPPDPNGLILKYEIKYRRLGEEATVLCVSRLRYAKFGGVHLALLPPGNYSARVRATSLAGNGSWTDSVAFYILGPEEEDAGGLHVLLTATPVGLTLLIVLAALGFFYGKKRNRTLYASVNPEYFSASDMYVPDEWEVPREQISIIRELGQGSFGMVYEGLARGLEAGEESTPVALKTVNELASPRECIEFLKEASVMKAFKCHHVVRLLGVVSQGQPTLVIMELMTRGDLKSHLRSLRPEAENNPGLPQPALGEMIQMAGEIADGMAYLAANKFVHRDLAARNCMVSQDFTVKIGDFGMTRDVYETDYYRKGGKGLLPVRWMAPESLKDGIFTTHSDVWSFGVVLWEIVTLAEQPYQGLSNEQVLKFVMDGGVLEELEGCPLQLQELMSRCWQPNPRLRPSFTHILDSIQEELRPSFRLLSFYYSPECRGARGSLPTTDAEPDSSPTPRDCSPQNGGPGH
Sequence of 320 wild-type protein kinases (Homo sapiens, UniProt Q16513) (Q16513 whole entry): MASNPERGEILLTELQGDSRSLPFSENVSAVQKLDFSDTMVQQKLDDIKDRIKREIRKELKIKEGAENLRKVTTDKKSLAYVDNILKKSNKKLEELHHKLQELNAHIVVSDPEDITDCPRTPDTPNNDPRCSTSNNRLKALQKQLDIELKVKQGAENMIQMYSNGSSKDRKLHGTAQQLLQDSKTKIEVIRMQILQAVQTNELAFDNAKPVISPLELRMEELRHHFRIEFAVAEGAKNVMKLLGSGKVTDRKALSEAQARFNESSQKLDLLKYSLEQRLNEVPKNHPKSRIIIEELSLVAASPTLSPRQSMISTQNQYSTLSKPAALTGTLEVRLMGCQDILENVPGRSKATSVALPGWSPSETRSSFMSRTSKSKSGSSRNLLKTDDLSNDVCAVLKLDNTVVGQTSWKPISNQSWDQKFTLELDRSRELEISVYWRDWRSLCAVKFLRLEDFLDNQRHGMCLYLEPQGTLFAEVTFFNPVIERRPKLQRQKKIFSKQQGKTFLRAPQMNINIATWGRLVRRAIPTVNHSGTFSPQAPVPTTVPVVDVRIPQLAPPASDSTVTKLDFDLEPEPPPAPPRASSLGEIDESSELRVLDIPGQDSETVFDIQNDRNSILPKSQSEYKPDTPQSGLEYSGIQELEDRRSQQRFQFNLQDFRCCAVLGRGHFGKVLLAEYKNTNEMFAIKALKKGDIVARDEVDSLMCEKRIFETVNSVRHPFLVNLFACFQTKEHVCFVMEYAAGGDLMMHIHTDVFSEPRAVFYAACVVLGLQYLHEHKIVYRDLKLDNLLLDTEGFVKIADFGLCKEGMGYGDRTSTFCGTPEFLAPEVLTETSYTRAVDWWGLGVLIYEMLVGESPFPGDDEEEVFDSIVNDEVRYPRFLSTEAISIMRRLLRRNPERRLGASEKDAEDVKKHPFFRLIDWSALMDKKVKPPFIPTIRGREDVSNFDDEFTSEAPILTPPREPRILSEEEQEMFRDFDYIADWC
Sequence of 320 wild-type protein kinases (Homo sapiens, UniProt Q9UQM7) (Q9UQM7 whole entry): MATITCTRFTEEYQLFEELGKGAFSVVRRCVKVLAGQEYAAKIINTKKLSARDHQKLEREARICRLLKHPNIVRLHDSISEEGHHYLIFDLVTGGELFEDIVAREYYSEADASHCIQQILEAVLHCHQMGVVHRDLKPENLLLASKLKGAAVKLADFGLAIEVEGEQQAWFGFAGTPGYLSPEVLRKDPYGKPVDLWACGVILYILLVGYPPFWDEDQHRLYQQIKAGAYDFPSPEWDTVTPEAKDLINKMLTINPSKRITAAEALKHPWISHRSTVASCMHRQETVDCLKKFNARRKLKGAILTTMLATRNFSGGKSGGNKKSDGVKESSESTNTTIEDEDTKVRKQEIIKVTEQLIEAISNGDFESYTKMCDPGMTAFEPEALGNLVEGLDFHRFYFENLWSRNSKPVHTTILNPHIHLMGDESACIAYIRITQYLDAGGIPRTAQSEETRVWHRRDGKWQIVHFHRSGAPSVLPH

Structure (SMILES) | Residual activity ([1]; 1.0E-06 M) | Residual activity ([1]; 1.0E-07 M) | Residual activity ([2]; CDK1/CycA2, 1.0E-06 M) | Residual activity ([2]; CDK1/CycA2, 1.0E-07 M) | Residual activity ([2]; CDK1/CycB1, 1.0E-06 M) | Residual activity ([2]; CDK1/CycB1, 1.0E-07 M) | Residual activity ([2]; CDK1/CycE1, 1.0E-06 M) | Residual activity ([2]; CDK1/CycE1, 1.0E-07 M) | Residual activity ([3]; 1.0E-06 M) | Residual activity ([3]; 1.0E-07 M) | Residual activity, TNK1 ([4]; assay conc. 1.0E-06 M) | Residual activity, TNK1 ([4]; assay conc. 1.0E-07 M) | Residual activity ([5]; 1.0E-06 M) | Residual activity ([5]; 1.0E-07 M) | Residual activity, RPS6KA1 ([6]; assay conc. 1.0E-06 M) | Residual activity, RPS6KA1 ([6]; assay conc. 1.0E-07 M) | Residual activity ([7]; PRK2, 1.0E-06 M) | Residual activity ([7]; PRK2, 1.0E-07 M) | Residual activity ([8]; 1.0E-06 M) | Residual activity ([8]; 1.0E-07 M) | also measured
C#Cc1cc(Nc2ncnc3cc(I)ccc23)ccc1Cl [Compound 41] | 100 % of control | 109 % of control | 77 % of control | 91 % of control | 79 % of control | 84 % of control | 101 % of control | 116 % of control | 93 % of control | 96 % of control | 112 % of control | 130 % of control | 89 % of control | 103 % of control | 99 % of control | 103 % of control | 88 % of control | 85 % of control | 141 % of control | 140 % of control | Residual activity ([9]; 1.0E-06 M): 84 % of control; Residual activity ([9]; 1.0E-07 M): 96 % of control; Residual activity ([10]; 1.0E-06 M): 93 % of control; Residual activity ([10]; 1.0E-07 M): 99 % of control; Residual activity ([11]; PKC-beta2, 1.0E-06 M): 95 % of control; Residual activity ([11]; PKC-beta2, 1.0E-07 M): 98 % of control
C#Cc1cc(Nc2ncnc3cc(OC)c(OC)cc23)ccc1Cl [Compound 45] | 95 % of control | 106 % of control | 83 % of control | 83 % of control | 78 % of control | 89 % of control | 91 % of control | 97 % of control | 99 % of control | 103 % of control | 83 % of control | 117 % of control | 95 % of control | 91 % of control | 74 % of control | 88 % of control | 95 % of control | 92 % of control | 113 % of control | 114 % of control | Residual activity ([9]; 1.0E-06 M): 69 % of control; Residual activity ([9]; 1.0E-07 M): 90 % of control; Residual activity ([10]; 1.0E-06 M): 101 % of control; Residual activity ([10]; 1.0E-07 M): 104 % of control; Residual activity ([11]; PKC-beta2, 1.0E-06 M): 95 % of control; Residual activity ([11]; PKC-beta2, 1.0E-07 M): 97 % of control
